Assay results taken from paper PMC4942781, “A sodium channel inhibitor ISTX-I with a novel structure provides a new hint at the evolutionary link between two toxin folds” (Scientific Reports, 2016).
Bridge positions count the residues as written; N and C are the ends. Ends that are not written are not given here.

Assays:
[1] = test system: hNav1.1; assay: Whole-cell patch clamp, hNav1.1 in HEK293T cells; assay type: cell-based, human; conditions: 10 μM ISTX-I; 50 ms step to -10 mV from -80 mV
Description: (§1) HEK293T (human embryonic kidney) cells were grown in DMEM containing 10% heat-inactivated FBS at 37 °C in a 5% CO2 incubator. The cDNA genes encoding human (h)Nav1.1, (h)Nav1.2, (h)Nav1.3, (h)Nav1.4, (h)Nav1.5, (h)Nav1.6 and (h)Nav1.7 were transiently transfected into HEK293T cells for electrophysiology using Lipofectamine-2000 (Invitrogen) in serum-reduced medium (Opti-MEM, Invitrogen) following the manufacturer’s instructions. The auxiliary subunits hβ1 and enhanced green florescent protein plasmids were cotransfected into HEK293T cells to increase the current density and efficiently select cells with green florescent protein for whole-cell patch-clamp recordings. After 12 h, the HEK293T cells were used for electrophysiological analysis.
(§2) DRG neurons with a large diameter (>[…]) and those with a relatively small diameter (<[…]) were chosen by measuring TTX-s and TTX-r currents, respectively. […] Potassium, calcium, and sodium currents were recorded in experimental cells using whole-cell patch-clamp recordings at room temperature, which were performed with an HEK EPC10 patch-clamp amplifier. […] Experimental data were acquired and analyzed using the programs patch master and Sigmaplot 9.0 (Sigma, USA). […]
(§3) Currents were recorded from experimental cells using whole-cell patch clamptechnique at room temperature (22–25 °C). […]

[2] = test system: hNav1.2; assay: Whole-cell patch clamp, hNav1.2 in HEK293T cells; assay type: cell-based, human; conditions: 10 μM ISTX-I; 50 ms step to -10 mV from -80 mV
Description: as §1, §2, §3

[3] = test system: TTX-r sodium channel; assay: Whole-cell patch clamp, TTX-r sodium currents in rat DRG neurons; assay type: cell-based
Description: The effects of ISTX-I on voltage-gated ion channels were investigated in the dorsal root ganglion (DRG). DRG neurons were held at −80 mV for over 4 min to allow adequate equilibration between the micropipette solution and the cell interior, and then current traces were evoked using a 50 ms step depolarization to −10 mV every second.
Figure 3 Effects of ISTX-I on voltage-gated ion channels in rat DRG neurons. […] (C) Dose-dependent inhibition of ISTX-I on the TTX-s Nav channel (n = 5). (D) Current-voltage (I-V) relationship for the TTX-s Nav channel currents before (solid circles) and after (open circles) the application of 5 μM ISTX-I (n = 5). […]
as §2
Currents were recorded from experimental cells using whole-cell patch clamptechnique at room temperature (22–25 °C). […] K+ currents were recorded using an internal solution containing the followings (in mM): KCl 140, MgCl2 2.5, HEPES 10, and EGTA 11 (pH 7.2). […]

LCSENGDCAADECCVDTVFEGDMVTRSCEKTTGNFTECPGLTPIA (disulfide 2-14, 8-28, 13-38) [ISTX-I]
effect on hNav1.1 [1]: no effect
effect on hNav1.2 [2]: no effect
effect on TTX-r sodium channels (summary) [3]: not TTX-r sodium channels
effect on TTX-r sodium channel currents ([3]; 10 μM ISTX-I, 100 nM TTX to separate TTX-r currents): no effect
